Reference: patent publication US11266146B2, “Microbiocidal quinoline (thio)carboxamide derivatives” (SYNGENTA PARTICIPATIONS AG, priority 2017, dated 2022)

How the values were obtained:
[1] = system: Botryotinia fuckeliana (Botrytis cinerea); experiment: Botryotinia fuckeliana (Botrytis cinerea) / liquid culture (Gray mould); format: cell-based; settings: growth inhibition photometrically 3-4 days after application, vs untreated control
[2] = system: Glomerella lagenarium (Colletotrichum lagenarium); experiment: Glomerella lagenarium (Colletotrichum lagenarium) / liquid culture (Anthracnose); format: cell-based; settings: Colletotrichum orbiculare, growth inhibition photometrically 3-4 days after application, vs untreated control
Fusarium culmorum [3] = experiment: microbe, parasite or virus in culture; format: cell-based; settings: read-out: control of Fusarium culmorum
[4] = system: Magnaporthe grisea (Pyricularia oryzae); experiment: microbe, parasite or virus in culture; format: cell-based; settings: read-out: control of Magnaporthe grisea
Fusarium culmorum [5] = experiment: whole plant or invertebrate; format: in vivo; settings: in Triticum aestivum, 144 h, read-out: control of Fusarium culmorum
[6] = system: Monographella nivalis (Microdochium nivale); experiment: Monographella nivalis (Microdochium nivale) / liquid culture (foot rot cereals); format: cell-based; settings: growth inhibition photometrically 4-5 days after application, vs untreated control

SMILES | inhibition of growth at 20 ppm [1] | inhibition of growth at 20 ppm [2] | inhibition of growth at 20 ppm (Fusarium culmorum [3]) | inhibition of growth at 20 ppm [4] | pest or weed control at 200 ppm (Fusarium culmorum [5]) | inhibition of growth at 20 ppm [6] | melting point
CC(C)C[C@](C)(CN1CCCC(F)(F)C1)NC(=O)c1cnc2c(F)cccc2c1 (single isomer, unassigned) [F1] | ≥ 80% | ≥ 80% | ≥ 80% | ≥ 80% |  |  | 
CC(C)C[C@@](C)(CN1CCCC(F)(F)C1)NC(=O)c1cnc2c(F)cccc2c1 (single isomer, unassigned) [F2] | ≥ 80% | ≥ 80% | ≥ 80% | ≥ 80% | ≥ 80% | ≥ 80% | 
Cc1cnc(CC(C)(CC(C)(C)C)NC(=O)c2cnc3c(F)cccc3c2)o1 (stereo not shown) [E1] | ≥ 80% | ≥ 80% | ≥ 80% |  |  | ≥ 80% | 
Cc1noc(CC(C)(CC(C)(C)C)NC(=O)c2cnc3c(F)cccc3c2)n1 (stereo not shown) [E2] | ≥ 80% | ≥ 80% | ≥ 80% | ≥ 80% |  |  | 
CC(C)CC(C)(CN1CCCC(F)(F)C1)NC(=O)c1cnc2c(F)cccc2c1 (stereo not shown) [E3] | ≥ 80% | ≥ 80% | ≥ 80% | ≥ 80% | ≥ 80% |  | 
CC(C)CC(C)(CN1CCC(=C(F)F)CC1)NC(=O)c1cnc2c(F)cccc2c1 (stereo not shown) [E4] | ≥ 80% | ≥ 80% | ≥ 80% | ≥ 80% |  |  | 
CC(C)CC(C)(CN1CCC(F)(F)CC1)NC(=O)c1cnc2c(F)cccc2c1 (stereo not shown) [E5] | ≥ 80% | ≥ 80% | ≥ 80% | ≥ 80% |  |  | 
CC(C)CC(C)(CN1CCCCO1)NC(=O)c1cnc2c(F)cccc2c1 (stereo not shown) [E6] | ≥ 80% | ≥ 80% | ≥ 80% | ≥ 80% | ≥ 80% | ≥ 80% | 
CC(C)CC(C)(CN1CCSCC1)NC(=O)c1cnc2c(F)cccc2c1 (stereo not shown) [E7] | ≥ 80% |  | ≥ 80% | ≥ 80% |  |  | 
Cc1ncc(CC(C)(CC(C)C)NC(=O)c2cnc3c(F)cccc3c2)s1 (stereo not shown) [E8] | ≥ 80% | ≥ 80% | ≥ 80% | ≥ 80% |  |  | 146 to 150 °C
CC(C)CC(C)(Cc1cnc(Cl)s1)NC(=O)c1cnc2c(F)cccc2c1 (stereo not shown) [E9] | ≥ 80% |  | ≥ 80% | ≥ 80% | ≥ 80% |  | 171 to 173 °C
CC(C)(C)CC(C)(Cc1ncco1)NC(=O)c1cnc2c(F)cccc2c1 (stereo not shown) [E11] | ≥ 80% | ≥ 80% | ≥ 80% |  |  |  | 
CC(C)CC(C)(Cc1cccs1)NC(=O)c1cnc2c(F)cccc2c1 (stereo not shown) [E12] | ≥ 80% | ≥ 80% | ≥ 80% | ≥ 80% | ≥ 80% |  | 
Cc1ccc(CC(C)(CC(C)C)NC(=O)c2cnc3c(F)cccc3c2)s1 (stereo not shown) [E13] | ≥ 80% | ≥ 80% | ≥ 80% | ≥ 80% |  |  | 
CC(C)CC(C)(Cc1ccc(Cl)s1)NC(=O)c1cnc2c(F)cccc2c1 (stereo not shown) [E14, N-[1-[(5-chloro-2-thienyl)methyl]-1,3-dimethyl-butyl]-8-fluoro-quinoline-3-carboxamide] | ≥ 80% | ≥ 80% | ≥ 80% | ≥ 80% | ≥ 80% | ≥ 80% | 126 to 128 °C
Cc1cc(C(F)(F)F)n(CC(C)(CC(C)C)NC(=O)c2cnc3c(F)cccc3c2)n1 (stereo not shown) [E15] |  | ≥ 80% | ≥ 80% | ≥ 80% | ≥ 80% |  | 
Cc1cc(C(F)(F)F)nn1CC(C)(CC(C)C)NC(=O)c1cnc2c(F)cccc2c1 (stereo not shown) [E16] |  |  |  | ≥ 80% |  |  | 140 to 144 °C
Cc1c2ccccc2nn1CC(C)(CC(C)C)NC(=O)c1cnc2c(F)cccc2c1 (stereo not shown) [E17] | ≥ 80% |  | ≥ 80% |  |  | ≥ 80% | 
Cc1nn(CC(C)(CC(C)C)NC(=O)c2cnc3c(F)cccc3c2)c2ccccc12 (stereo not shown) [E18] | ≥ 80% | ≥ 80% | ≥ 80% |  |  |  | 

SMILES | inhibition of growth at 20 ppm [1] | inhibition of growth at 20 ppm [2] | inhibition of growth at 20 ppm (Fusarium culmorum [3]) | inhibition of growth at 20 ppm [4] | pest or weed control at 200 ppm (Fusarium culmorum [5]) | inhibition of growth at 20 ppm [6] | melting point
Cc1nn(CC(C)(CC(C)C)NC(=O)c2cnc3c(F)cccc3c2)c(C)c1Cl (stereo not shown) [E19] | ≥ 80% | ≥ 80% | ≥ 80% |  |  | ≥ 80% | 134 to 138 °C
Cc1nn(CC(C)(CC(C)C)NC(=O)c2cnc3c(F)cccc3c2)c(C)c1C (stereo not shown) [E20] | ≥ 80% | ≥ 80% | ≥ 80% |  |  | ≥ 80% | 140 to 144 °C
Cc1cc(C)n(CC(C)(CC(C)C)NC(=O)c2cnc3c(F)cccc3c2)n1 (stereo not shown) [E21] | ≥ 80% | ≥ 80% | ≥ 80% | ≥ 80% |  | ≥ 80% | 
CC1=NN(CC(C)(CC(C)C)NC(=O)c2cnc3c(F)cccc3c2)CCC1 (stereo not shown) [E23] | ≥ 80% | ≥ 80% | ≥ 80% |  |  | ≥ 80% | 
CC(C)CC(C)(CN1CCCC=N1)NC(=O)c1cnc2c(F)cccc2c1 (stereo not shown) [E24] | ≥ 80% | ≥ 80% |  |  | ≥ 80% | ≥ 80% | 
CC(CC1CCOCC1)(CC(F)(F)F)NC(=O)c1cnc2c(F)cccc2c1 (stereo not shown) [E25] | ≥ 80% | ≥ 80% | ≥ 80% |  |  |  | 150 to 151 °C
CON1CCC(CC(C)(CC(F)(F)F)NC(=O)c2cnc3ccccc3c2)CC1 (stereo not shown) [E26] | ≥ 80% | ≥ 80% | ≥ 80% | ≥ 80% | ≥ 80% |  | 
CON1CCC(CC(C)(CC(F)(F)F)NC(=O)c2cnc3c(C)cccc3c2)CC1 (stereo not shown) [E27] | ≥ 80% | ≥ 80% | ≥ 80% | ≥ 80% |  |  | 
CON1CCC(CC(C)(CC(F)(F)F)NC(=O)c2cnc3c(F)cccc3c2)CC1 (stereo not shown) [E28] | ≥ 80% | ≥ 80% | ≥ 80% |  |  |  | 76 to 86 °C
CC(Cc1ccc(F)nc1)(CC(F)(F)F)NC(=O)c1cnc2c(F)cccc2c1 (stereo not shown) [E29] | ≥ 80% | ≥ 80% | ≥ 80% |  |  |  | 70 to 74 °C
CC(Cc1ccnc(F)c1)(CC(F)(F)F)NC(=O)c1cnc2c(F)cccc2c1 (stereo not shown) [E30] | ≥ 80% |  | ≥ 80% | ≥ 80% | ≥ 80% |  | 136 to 142 °C
CC(CC1CCOCC1)(CC(F)(F)F)NC(=O)c1cnc2ccccc2c1 (stereo not shown) [E31] | ≥ 80% |  |  |  |  |  | 
Cc1cccc2cc(C(=O)NC(C)(CC3CCOCC3)CC(F)(F)F)cnc12 (stereo not shown) [E32] | ≥ 80% | ≥ 80% | ≥ 80% | ≥ 80% |  |  | 
Cc1cccc2cc(C(=O)NC(C)(Cc3cccc(F)n3)CC(F)(F)F)cnc12 (stereo not shown) [E33] | ≥ 80% | ≥ 80% | ≥ 80% | ≥ 80% | ≥ 80% | ≥ 80% | 
CC(Cc1cccc(F)n1)(CC(F)(F)F)NC(=O)c1cnc2c(F)cccc2c1 (stereo not shown) [E34] | ≥ 80% | ≥ 80% | ≥ 80% | ≥ 80% | ≥ 80% |  | 
CC(Cc1cccc(F)n1)(CC(F)(F)F)NC(=O)c1cnc2ccccc2c1 (stereo not shown) [E35] | ≥ 80% | ≥ 80% | ≥ 80% |  | ≥ 80% |  | 109 to 111 °C
CC(CC1CCCOC1)(CC(F)(F)F)NC(=O)c1cnc2ccccc2c1 (stereo not shown) [E36] | ≥ 80% | ≥ 80% | ≥ 80% |  |  |  | 81 to 84 °C
Cc1cccc2cc(C(=O)NC(C)(CC3CCCOC3)CC(F)(F)F)cnc12 (stereo not shown) [E37] | ≥ 80% | ≥ 80% | ≥ 80% | ≥ 80% |  | ≥ 80% | 
CC(CC1CCCOC1)(CC(F)(F)F)NC(=O)c1cnc2c(F)cccc2c1 (stereo not shown) [E38] | ≥ 80% | ≥ 80% | ≥ 80% | ≥ 80% |  | ≥ 80% | 85 to 88 °C
